The values below come from article PMC4888466 (Biochemical Journal, 2016).

SMILES strings stand for the structures.

The target in one test is T1, RML-1 (Caenorhabditis elegans, UniProt Q9XUS4).
T1 sequence (Q9XUS4 1-511): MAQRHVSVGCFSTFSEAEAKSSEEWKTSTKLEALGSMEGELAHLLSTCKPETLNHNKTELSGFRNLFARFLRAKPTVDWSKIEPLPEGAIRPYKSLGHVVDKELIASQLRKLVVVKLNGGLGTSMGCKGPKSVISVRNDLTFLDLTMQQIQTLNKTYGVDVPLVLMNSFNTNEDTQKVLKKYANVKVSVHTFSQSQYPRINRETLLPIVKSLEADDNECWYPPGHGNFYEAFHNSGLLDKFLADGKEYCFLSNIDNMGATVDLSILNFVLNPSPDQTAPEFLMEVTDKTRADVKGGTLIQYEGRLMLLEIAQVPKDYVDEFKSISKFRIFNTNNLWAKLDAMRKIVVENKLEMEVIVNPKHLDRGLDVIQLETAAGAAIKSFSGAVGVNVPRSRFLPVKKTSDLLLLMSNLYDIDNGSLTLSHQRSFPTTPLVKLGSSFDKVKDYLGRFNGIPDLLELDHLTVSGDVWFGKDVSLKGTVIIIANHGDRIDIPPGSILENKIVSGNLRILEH
The test is described as follows: EnzChek pyrophosphate assay, […] nm. The test is classed as biochemical. To be noted: 1 mM Glc-1-P; 5 mM MgCl2, pH 7.5, 25°C.

The next test concerns the target T2, RML-4–RML-5 (Caenorhabditis elegans, UniProt Q17556).
T2 sequence (Q17556 1-631): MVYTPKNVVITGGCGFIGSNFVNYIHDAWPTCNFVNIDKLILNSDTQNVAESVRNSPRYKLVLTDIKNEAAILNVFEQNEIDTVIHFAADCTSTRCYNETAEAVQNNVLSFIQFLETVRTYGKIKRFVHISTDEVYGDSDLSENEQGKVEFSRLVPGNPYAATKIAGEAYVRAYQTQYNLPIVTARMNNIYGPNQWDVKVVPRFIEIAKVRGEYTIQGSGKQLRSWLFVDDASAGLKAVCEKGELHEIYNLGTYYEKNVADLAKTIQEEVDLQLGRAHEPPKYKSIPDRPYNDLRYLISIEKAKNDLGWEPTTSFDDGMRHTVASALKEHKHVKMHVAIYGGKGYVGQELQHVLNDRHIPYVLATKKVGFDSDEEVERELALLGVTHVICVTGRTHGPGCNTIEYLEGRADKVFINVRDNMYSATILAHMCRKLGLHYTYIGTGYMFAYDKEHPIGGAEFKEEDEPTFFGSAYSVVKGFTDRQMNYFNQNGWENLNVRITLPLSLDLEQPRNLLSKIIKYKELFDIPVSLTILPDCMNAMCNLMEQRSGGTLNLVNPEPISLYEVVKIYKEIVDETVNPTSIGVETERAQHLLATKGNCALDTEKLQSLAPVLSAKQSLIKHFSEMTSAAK
T2 sequence (Q95XM5 1-383 partner): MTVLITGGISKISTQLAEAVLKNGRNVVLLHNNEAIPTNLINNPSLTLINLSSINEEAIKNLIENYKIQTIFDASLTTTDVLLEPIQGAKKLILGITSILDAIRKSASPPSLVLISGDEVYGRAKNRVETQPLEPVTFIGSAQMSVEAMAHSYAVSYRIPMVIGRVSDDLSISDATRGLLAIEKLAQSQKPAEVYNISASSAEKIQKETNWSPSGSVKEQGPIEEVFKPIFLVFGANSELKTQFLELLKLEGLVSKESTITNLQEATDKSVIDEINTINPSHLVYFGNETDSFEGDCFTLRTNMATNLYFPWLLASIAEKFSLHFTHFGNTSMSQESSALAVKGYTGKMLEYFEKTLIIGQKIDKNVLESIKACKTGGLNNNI
The test is described as follows: LC–MS. To be noted: formed from dTDP-4-keto-6-deoxyglucose with RML-3 and NAD(P)H, 25°C. The test is classed as biochemical.

For orientation: Km means the concentration of substrate that gives half-maximal velocity.

Turning to `Cc1cn([C@H]2C[C@H](O)[C@@H](COP(=O)(O)OP(=O)(O)OP(=O)(O)O)O2)c(=O)[nH]c1=O` [dTTP], the Km at RML-1 is 24.2 ± 2.86 µM. Regarding `O=c1ccn([C@@H]2O[C@H](COP(=O)(O)OP(=O)(O)OP(=O)(O)O)[C@@H](O)[C@H]2O)c(=O)[nH]1` [UTP], the Michaelis-Menten constant (Km) at RML-1 came to 9.47 ± 1.7 µM.

For `Cc1cn([C@H]2C[C@H](O)[C@@H](COP(=O)(O)OP(=O)(O)O[C@H]3O[C@@H](C)[C@H](O)[C@@H](O)[C@H]3O)O2)c(=O)[nH]c1=O` [dTDP-rhamnose], the “LC-MS; 1H NMR and COSY of HPLC-purified product” value at RML-4–RML-5 is “the final product is dTDP-rhamnose when dTDP-4-keto-6-deoxyglucose is incubated with RML-3 and RML-4–RML-5”.
